# In patent US10869481B2, “Method for controlling nematode pests” (Syngenta Participations AG, priority 2014, dated 2020):
# Tests used:
# Type in all cases: in vivo, Heterodera schachtii
# [1] = test system: sugar beet nematode (SBN); test: Yield response field trials, CACTUS tolerant sugar beet seeds, seed treatment; details: for White Sugar yield/ha: CACTUS tolerant sugar beet, average of nine field trials
# Description: (§1) The yield response study illustrates the unexpected increase in yield achieved by using a nematode-antagonistic biocontrol agent with SBN resistant or tolerant varieties. Multiple field trials were conducted across Germany, Czech Republic and Denmark. The results of nine different trials are presented below utilizing seed treatments on sugar beet seeds to combat nematodes.
# (§2) The tests presented below were run on both susceptible and SBN tolerant varieties of sugar beet seeds. In particular, the susceptible variety is known by the trade name INVICTA and the tolerant variety is known by the trade name CACTUS. Each trial, on both the susceptible and tolerant variety, was run with a Control check that included no nematicide, a treatment on the seed with Pasteuria nishizawae at about 1×10^6 spores/seed, a treatment on the seed with Pasteuria nishizawae at about 1×10^7 spores/seed, and a treatment on the seed that included a commercial soil applied standard nematicide.
# (§3) The results of trails are presented below where yield data has been averaged.
# CACTUS Tolerant Sugar Beet Seeds
# [2] = test system: sugar beet nematode (SBN); test: Yield response field trials, INVICTA susceptible sugar beet seeds, seed treatment
# Description: as §1, §2, §3
# INVICTA Susceptible Sugar Beet Seeds
# [3] = test system: sugar beet nematode (SBN); test: Root and sugar yield field trials, susceptible sugar beet seeds, seed treatment
# Description: (§4) The root and sugar yield response study illustrates the unexpected increase in root and sugar yield achieved by using a nematode-antagonistic biocontrol agent with SBN resistant or tolerant varieties. Multiple field trials were conducted across Nebraska, Colorado, and Idaho. The results of four different trials are presented below utilizing seed treatments on sugar beet seeds to combat nematodes.
# (§5) The tests presented below were run on both susceptible and SBN tolerant varieties of sugar beet seeds. Each trial, on both the susceptible and tolerant variety, was run with a Control check that included no nematicide, a treatment on the seed with Pasteuria nishizawae at about 5×10^6 spores/seed, a treatment on the seed with Pasteuria nishizawae at about 1×10^7 spores/seed, a treatment on the seed with Pasteuria nishizawae at about 2×10^7 spores/seed and a treatment on the seed with Pasteuria nishizawae at about 4×10^7 spores/seed.
# as §3
# Susceptible Sugar Beet Seeds
# [4] = test system: sugar beet nematode (SBN); test: Root and sugar yield field trials, tolerant sugar beet seeds, seed treatment; details: average of four field trials
# Description: as §4, §5, §3
# Tolerant Sugar Beet Seeds
# [5] = 1 × 10^7 spores/seed, average of four field trials
# [6] = 2 × 10^7 spores/seed, average of four field trials
# [7] = 4 × 10^7 spores/seed, average of four field trials
substance,measurement,setting,value
Pasteuria nishizawae,White Sugar yield/ha,[1]; seed treatment 1 × 10^6 spores/seed,12.65 /ha
same,White Sugar yield/ha,[1]; seed treatment 1 × 10^7 spores/seed,12.93 /ha
same,yield compared with commercial standards,"[1]; tolerant varieties treated with Pasteuria, statement in words",showed an increase over commercial standards
same,White Sugar yield/ha,"[2]; seed treatment 1 × 10^6 spores/seed, average of nine field trials (Germany, Czech Republic, Denmark)",11.09 /ha
same,White Sugar yield/ha,"[2]; seed treatment 1 × 10^7 spores/seed, average of nine field trials",11.20 /ha
same,Root Yield,[3]; [5],19.9 Ton/Acre
same,White Sugar,[3]; [5],2.5 Ton/Acre
same,Root Yield,[3]; [6],19.8 Ton/Acre
same,White Sugar,[3]; [6],2.3 Ton/Acre
same,Root Yield,[3]; [7],19.5 Ton/Acre
same,White Sugar,[3]; [7],2.4 Ton/Acre
same,Root Yield,"[3]; 5 × 10^6 spores/seed, average of four field trials",17.4 Ton/Acre
same,White Sugar,"[3]; 5 × 10^6 spores/seed, average of four field trials (Nebraska, Colorado, Idaho)",2.0 Ton/Acre
same,Root Yield,[4]; 1 × 10^7 spores/seed,27.2 Ton/Acre
same,White Sugar,[4]; 1 × 10^7 spores/seed,3.5 Ton/Acre
same,Root Yield,[4]; 2 × 10^7 spores/seed,27.2 Ton/Acre
same,White Sugar,[4]; 2 × 10^7 spores/seed,3.7 Ton/Acre
same,Root Yield,[4]; 4 × 10^7 spores/seed,26.7 Ton/Acre
same,White Sugar,[4]; 4 × 10^7 spores/seed,3.5 Ton/Acre
same,Root Yield,[4]; 5 × 10^6 spores/seed,26.1 Ton/Acre
same,White Sugar,[4]; 5 × 10^6 spores/seed,3.6 Ton/Acre
